The results in this text go back to patent US8623990B2, “Polyester resin composition” (FUJIFILM Corporation, priority 2010, dated 2014).

The series can be described thus: Measurement of pKa by absorption spectrum on addition of perchloric acid. It counts as physicochemical. The note with it: in acetonitrile, 70% perchloric acid (solvent: acetic acid) added dropwise; proton adduct at nitrogen of triazine ring. As for the experimental part: Compound (2) was dissolved in acetonitrile to give an absorbance of 1 and to this solution, 70% perchloric acid (solvent: acetic acid) was added dropwise, thereby varying the pH. At this time, the absorption spectrum of solution was measured and based on the absorbance at λmax, the proportions of a triazine-free form and a proton adduct were calculated at each pH. From the point at which these values became equal, the pKa value was determined. Here, the triazine-free form indicates Compound (2) itself, and the proton adduct indicates a compound resulting from addition of a proton to the nitrogen atom of triazine ring of Compound (2). Compounds (21), (24), (120), (m-2), (m-3), (m-4), (m-21), (m-31), (m-20) and (m-1), and as comparative compounds, (Example A1) and (Example A2) were determined for the pKa value in the same manner. The absorption spectrum was measured using a spectrophotometer, UV-3600 (trade name), manufactured by Shimadzu Corporation, and the pH was measured using a pH meter, HM60G (trade name), manufactured by To a Denpa Kogyo. Incidentally, the absorbance is a value measured at the maximum absorption wavelength of each compound.

Structures are written as SMILES.

`CCC(C)CCCCCC(CCCC(C)CC)COC(=O)c1ccc(-c2nc(-c3ccccc3O)nc(-c3ccccc3O)n2)cc1` (stereo not shown) [(24)] gave a pKa of -5.

`CC(CCOC(=O)c1ccc(-c2nc(-c3ccccc3O)nc(-c3ccccc3O)n2)cc1)CC(C)(C)C` (stereo not shown) [(120)] displayed a pKa of -5.

For `Oc1ccccc1-c1nc(-c2cccc(Cl)c2)nc(-c2ccccc2O)n1` [(m-4)], the pKa is -5.

`CCCCC(CC)COC(=O)c1ccc(-c2nc(-c3ccccc3O)nc(-c3ccccc3O)n2)cc1` (stereo not shown) [Compound (21)] returned a pKa of -5.
